Where no end group is shown, it is not given here.

These results are taken from paper PMC4869360, “An allosteric role for receptor activity-modifying proteins in defining GPCR pharmacology” (Cell Discovery, 2016).

For test [1], the system named is CT(a) receptor ECD alanine mutants. In words: 125I-hCT radioligand binding, CT(a) mutants. As to conditions: Ala mutation of W79, F99, D101, F102, H121, W128 and Y131; ~50 pM, 1 h, 37 °C, whole Cos-7 cells. Set-up: species or system human. The text has this:
transfected with CT(a). […] Data are
binding observed for each peptide.
For C, D and E statistical

The conditions of test [2]: Ala scan of an amylin analogue; cited from earlier work. The text has this: Of the residues impacting on peptide function only R126 contributed to amylin or CGRP function but not that of CT. R126 in the CTR/RAMP complex sits in close proximity to W84 (RAMP1) that may form an interaction with the peptide C-terminus for amylin and CGRP, and thus may contribute to the orientation of the peptide C-terminus to allow this interaction. The net contribution of the RAMP interaction is a reordering of residues in loop 5 that facilitates the peptide turn of amylin and CGRP and interaction of the C-terminus with the W84 of the RAMP, with reorientation of loop 4 residues facilitat ...

“^125I-hCT: hCT radioiodinated with iodination bead, purified by reverse-phase HPLC”: the 125I-hCT binding result in test [1] is recorded as “significantly reduced”.

In the case of “V32: amylin analogue with V32 substitution, from Ala scan of ref 34 (KCNTATCATQRLANFLVHSSNNFGAILSSTNAGSNTY; ends and bridges not checked; cysteine pairing not given here; UniProt P10997 34-70, looked up, variant V32A)”, the binding result in test [2] is “abolishing binding”.

“T30: amylin analogue with T30 substitution, from Ala scan of ref 34 (KCNTATCATQRLANFLVHSSNNFGAILSSANVGSNTY; ends and bridges not checked; cysteine pairing not given here; UniProt P10997 34-70, looked up, variant T30A)”: the binding entry in test [2] is reported as “abolishing binding”.
